Data as given in US5624903A, “Phosphoinositol-glycan-peptide with insulin-like action” (Heochst Aktiengesellschaft, priority 1991, dated 1997).

Tests used:
[1] = tested on: plasma membrane vesicles from rat adipocytes; test: Intrinsic glucose transport activity in isolated plasma membrane vesicles; assay type: biochemical; conditions: 10 nM
Procedure: (§1) Adipose tissue from the epididymis (Wistar rat, 160-180 g, no feed restriction) is digested with collagenase, and the resulting isolated adipocytes are washed several times by flotation.
(§2) To inactivate the insulin receptor in rat adipocytes, the cells are treated with 10 to 40 μg/ml trypsin. After addition of protease inhibitors, the cells are washed twice by flotation, and incubation is continued at 37° C. for 15 min. These cells are then used for the test of stimulation of lipogenesis by the phosphoinositol-glycanpeptides.
The experimental results obtained in the following experiments with tissue or cells in which the insulin receptor has been inactivated are indicated in parentheses in each case. […]
Isolated plasma membrane vesicles are incubated in the presence or absence of insulin/PGP at 25° C. for 30 min. The vesicles are subsequently incubated with 50 μM D-[3-^3 H]-glucose and L-[1-^14 C]glucose of the same specific radioactivity at 25° C. for 90 sec. […] Their radioactivity is determined by liquid scintillation measurement. The specific transport (D-[^3 H]glucose/-L-^14 C]glucose [dpm*10^-3 ]) is calculated as the difference between the [^3 H] radioactivity and [^14 C] radioactivity.

rat adipocytes [2] = test: Lipogenesis in rat adipocytes ([3H]glucose into lipids); assay type: cell-based; conditions: for Lipogenesis ([3H]lipid): 10 nM
Procedure: as §1, §2
(§3) The experimental results obtained in the following experiments with tissue or cells in which the insulin receptor has been inactivated are indicated in parentheses in each case.
This test determines the conversion, which can be stimulated by insulin, of glucose into toluene-soluble products (triglycerides, phospholipids, fatty acids), which requires glucose transport and triglyceride (glycerol 3-P synthesis, esterification)/phospholipid/fatty acid synthesis including the insulin signal transmission cascade.
Rat adipocytes are incubated in KRH buffer with D-[3-^3 H]glucose (0.2 mM or 1 mM final concentration) in the presence or absence of insulin and PGP at 37° C. for 90 min. The cells are disrupted by adding a toluene-soluble scintillation cocktail, and the lipids are separated from water-soluble products and the incubation medium. After phase separation, the radioactivity incorporated in lipids is determined by scintillation measurement directly without removing the aqueous phase ([^3 H]lipid [dpm*10^-3 ]).

rat adipocytes [3] = test: Protein synthesis in rat adipocytes ([3H]leucine incorporation); assay type: cell-based; conditions: 10 nM
Procedure: as §1, §2, §3
The stimulation of protein synthesis differs from the metabolic effects of insulin measured in the previous determinations in that it belongs to the long-term actions of insulin (as growth hormone). The assay includes the insulin signal cascade.
Rat adipocytes are incubated in primary culture in Dulbecco's modified essential medium (DMEM) deplete in leucine with 50 μM L-[^3 H]-leucine in the presence of insulin and PGP at 37° C. for 4 hours. […] The cell-associated radioactivity, determined by scintillation measurement, serves as a measure of the protein synthesis and the amino-acid transport through the plasma membrane ([^3 H]leucine [dpm*10^-4 ]).

glycogen synthase = test: Glycogen synthase activity in rat diaphragm pieces; assay type: cell-based; conditions: 10 nM
Procedure: (§4) Small pieces of tissue (5 mm diameter) were punched out of hemidiaphragms (Wistar rat, 60-70 g, no feed restriction) and washed several times.
(§5) To inactivate the insulin receptor in rat diaphragm, the pieces of tissue are incubated in KRH buffer (0.1 mM glucose in the presence of 50 μg/ml tetradecanoylphorbol acetate) at 25° C., passing O2 through continuously, for 90 min. The pieces of tissue are subsequently washed twice with KRH buffer and used for the relevant tests.
as §3
The test determines the conversion, which can be stimulated by insulin, of activated glucose (UDP-glucose) into glycogen (glycogen synthase activity) including a functional insulin signal transmission cascade. […]
Pieces of diaphragm are incubated with D-glucose (0.1 mM) in the presence or absence of insulin and PGP at 37° C. for 30 min. […] The glycogen synthase activity is calculated as the fractional ratio between the I form of the enzyme (independent of glucose 6-phosphate, dephosphorylated, corresponds to the amount of active enzyme in the homogenate) and the D form of the enzyme (dependent on glucose 6-phosphate, phosphorylated, corresponds to the total amount of activatable enzyme in the homogenate) ([^14 C]glycogen [dpm*10^-3 ]).

pieces of diaphragm = test: Glycogenesis in rat diaphragm pieces ([14C]glucose into glycogen); assay type: cell-based; conditions: 10 nM
Procedure: as §4, §5, §3
This test determines the glycogen synthesis which can be stimulated by insulin in myocytes and which embraces glucose transport through the plasma membrane and the conversion of the glucose into glycogen including the functional insulin signal transmission cascade.
Pieces of diaphragm are incubated with 50 μM D-[U-^14 C] glucose in KRH buffer in the presence or absence of insulin and PGP at 37° C. for 15 min. […] To determine the glycogen formed, the filters are transferred into TCA (5%), washed with ethanol and acetone and dried, and their radio-activity is determined by scintillation measurement ([^14 C]glycogen [dpm*10^-3 ]). […]

[4] = insulin receptor inactivated (value in parentheses)

With “Insulin: insulin stands for human insulin” the “Intrinsic glucose transport (specific transport D-[3H]glucose/L-[14C]glucose)” value [1, 4] was 2.3 dpm*10^-3, the “Intrinsic glucose transport (specific transport D-[3H]glucose/L-[14C]glucose)” value ([1]; plasma membrane vesicles) was 2.5 dpm*10^-3 and the “Lipogenesis ([3H]lipid)” value (rat adipocytes [2]; rat adipocytes) was 11.2 dpm*10^-3. For the same substance, the “Lipogenesis ([3H]lipid)” value (rat adipocytes [2]; trypsin-treated adipocytes, insulin receptor inactivated (value in parentheses)) was 1.9 dpm*10^-3, the “Lipogenesis which can be stimulated by insulin (in words)” value (rat adipocytes [2]; control incubation, adipocytes treated with 10 to 40 μg/ml trypsin) was “only very little lipogenesis which can be stimulated by insulin” and the “Protein synthesis ([3H]leucine)” value (rat adipocytes [3]; [4]) was 4.0 dpm*10^-4. For the same substance, the “Protein synthesis ([3H]leucine)” value (rat adipocytes [3]; rat adipocytes, 4 hours) was 10.1 dpm*10^-4, the Glycogen synthase (glycogen synthase; [4]) was 6.0 dpm*10^-3 and the Glycogen synthase (glycogen synthase; rat diaphragm pieces) was 10.1 dpm*10^-3. The “Glycogenesis ([14C]glycogen)” value (pieces of diaphragm; rat diaphragm pieces) was 8.4 dpm*10^-3 and the “Glycogenesis ([14C]glycogen)” value (pieces of diaphragm; rat diaphragm, insulin receptor inactivated (value in parentheses)) was 4.1 dpm*10^-3.
